In one assay the target is T1, chimeric human H3 receptor (Homo sapiens, UniProt Q9Y5N1).
T1 construct: made in house; host or cells: Sf9 insect cells (baculovirus); P2 membrane preparation
T1 sequence (Q9Y5N1 with tags, fused parts or gaps): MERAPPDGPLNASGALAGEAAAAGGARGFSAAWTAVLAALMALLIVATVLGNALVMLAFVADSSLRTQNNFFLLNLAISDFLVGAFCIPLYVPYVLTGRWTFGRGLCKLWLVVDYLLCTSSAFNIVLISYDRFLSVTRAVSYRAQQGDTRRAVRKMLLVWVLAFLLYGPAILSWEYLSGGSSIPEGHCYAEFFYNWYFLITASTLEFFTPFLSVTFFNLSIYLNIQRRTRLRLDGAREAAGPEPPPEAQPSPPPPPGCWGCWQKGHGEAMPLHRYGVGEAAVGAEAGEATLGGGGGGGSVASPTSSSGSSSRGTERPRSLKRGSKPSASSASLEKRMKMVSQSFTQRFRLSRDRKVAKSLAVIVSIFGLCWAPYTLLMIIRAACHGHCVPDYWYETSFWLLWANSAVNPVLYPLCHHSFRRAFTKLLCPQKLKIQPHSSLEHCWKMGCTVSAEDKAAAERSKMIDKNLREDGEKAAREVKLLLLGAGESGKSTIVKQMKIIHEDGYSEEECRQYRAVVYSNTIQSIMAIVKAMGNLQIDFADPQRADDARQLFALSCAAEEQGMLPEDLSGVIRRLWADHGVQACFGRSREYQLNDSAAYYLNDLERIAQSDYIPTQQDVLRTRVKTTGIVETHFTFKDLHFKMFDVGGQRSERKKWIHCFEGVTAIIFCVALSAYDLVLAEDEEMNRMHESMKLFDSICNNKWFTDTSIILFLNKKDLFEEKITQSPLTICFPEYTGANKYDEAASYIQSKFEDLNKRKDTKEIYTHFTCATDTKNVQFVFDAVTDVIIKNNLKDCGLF
In words: Chimeric human H3 receptor GTP binding assay (agonist-stimulated GTP-gamma35S binding, Example 7). Format: biochemical. The following applies: Table II "Ki", symbol *; assay of Example 7. In outline:
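Sf9 membranes co-expressing chimeric human H3 receptor and heterotrimeric G-protein, 35 μg/tube, in pH 7.4 Tris buffer with 10 μM GDP. Test compounds (10^−10–10^−6 M) competed against 1 μM histamine, […] GTP-gamma35S, 60 min at room temperature. Filter-bound radioactivity counted; IC50 converted to Ki by Cheng-Prusoff. Agonism/inverse agonism tested without histamine (EC50).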
`CN(C)Cc1ccccc1-c1ccc2c(c1)CCN(CC(=O)N1CCN(C3CCC3)CC1)C2` [Compound 640, 1-(2-{2-[2-(4-cyclobutylpiperazin-1-yl)-2-oxoethyl]-1,2,3,4-tetrahydroisoquinolin-6-yl}phenyl)-N,N-dimethylmethanamine]: the inhibition constant Ki is below 1000 nM. Same read-out and setting: then `COc1cc(F)c(-c2ccc3c(c2)CCN(CC(=O)N2CCN(C4CCCC4)CC2)C3)cc1F` [Compound 507, 2-[2-(4-cyclopentylpiperazin-1-yl)-2-oxoethyl]-6-(2,5-difluoro-4-methoxyphenyl)-1,2,3,4-tetrahydroisoquinoline], with below 1000 nM.

With `Cc1cccc(-c2ccc3c(c2)CCN(CC(=O)N2CCN(C4CCC4)CC2)C3)n1` [Compound 628, 2-[2-(4-cyclobutylpiperazin-1-yl)-2-oxoethyl]-6-(6-methylpyridin-2-yl)-1,2,3,4-tetrahydroisoquinoline], the inhibitory constant (Ki) was below 1000 nM.

For the molecule `CN(C)CCc1cccc(-c2ccc3c(c2)CCN(CC(=O)N2CCN(C4CCC4)CC2)C3)c1` [Compound 644, 2-(3-{2-[2-(4-cyclobutylpiperazin-1-yl)-2-oxoethyl]-1,2,3,4-tetrahydroisoquinolin-6-yl}phenyl)-N,N-dimethylethanamine], the Ki is below 1000 nM.

The assay is the same for the next values; noted with them: Table II; "*" = Ki in assay of Example 7 less than 1 micromolar.
Take `O=C(CN1CCc2[nH]c(=O)ccc2C1)N1CCN(C2CCC2)CC1` [Compound 134, 6-[2-(4-cyclobutylpiperazin-1-yl)-2-oxoethyl]-5,6,7,8-tetrahydro-1,6-naphthyridin-2(1H)-one]: the Ki was below 1000 nM.

As for `O=C(CN1CCc2nc(N3CCCCC3)ncc2C1)N1CCN(C2CCCC2)CC1` [Compound 156, 6-[2-(4-cyclopentylpiperazin-1-yl)-2-oxoethyl]-2-piperidin-1-yl-5,6,7,8-tetrahydropyrido[4,3-d]pyrimidine], the inhibitory constant (Ki) was below 1000 nM. Regarding `O=C(CN1CCc2c(cnn2-c2cccc(F)c2)C1)N1CCN(C2CCC2)CC1` [Compound 235, 5-[2-(4-cyclobutylpiperazin-1-yl)-2-oxoethyl]-1-(3-fluorophenyl)-4,5,6,7-tetrahydro-1H-pyrazolo[4,3-c]pyridine], the Ki is below 1000 nM.

Take `O=C(CN1CCc2cc(N3CCOCC3)nnc2C1)N1CCN(C2CCC2)CC1` [Compound 220, 7-[2-(4-cyclobutylpiperazin-1-yl)-2-oxoethyl]-3-morpholin-4-yl-5,6,7,8-tetrahydropyrido[3,4-c]pyridazine]: the Ki was below 1000 nM.

Still in this assay, the particulars now being: assay of Example 7; "*" in Ki of Table II.
Turning to `N#Cc1cccc(-c2nc3c(s2)CN(CC(=O)N2CCN(C4CCC4)CC2)CC3)c1` [Compound 367, 3-{5-[2-(4-cyclobutylpiperazin-1-yl)-2-oxoethyl]-4,5,6,7-tetrahydro[1,3]thiazolo [5,4-c]pyridin-2-yl}benzonitrile], the Ki is below 1000 nM. Turning to `COc1ccc(-c2ccc3c(c2)CCN(CC(=O)N2CCN(C4CCCC4)CC2)C3)cn1` [Compound 391, 2-[2-(4-cyclopentylpiperazin-1-yl)-2-oxoethyl]-6-(6-methoxypyridin-3-yl)-1,2,3,4-tetrahydroisoquinoline], the inhibitory constant (Ki) was below 1000 nM. Same read-out and setting: to `O=C(CN1CCc2nc(-c3ccc(Cl)c(C(F)(F)F)c3)sc2C1)N1CCN(C2CCC2)CC1` [Compound 373, 2-[4-chloro-3-(trifluoromethyl)phenyl]-5-[2-(4-cyclobutylpiperazin-1-yl)-2-oxoethyl]-4,5,6,7-tetrahydro[1,3]thiazolo [5,4-c]pyridine] belongs below 1000 nM; to `CCCc1ccc(-c2nc3c(s2)CN(CC(=O)N2CCN(C4CCC4)CC2)CC3)cc1` [Compound 312, 5-[2-(4-cyclobutylpiperazin-1-yl)-2-oxoethyl]-2-(4-propylphenyl)-4,5,6,7-tetrahydro[1,3]thiazolo [5,4-c]pyridine], below 1000 nM; to `COc1ccc(-c2nc3c(s2)CN(CC(=O)N2CCN(C4CCC4)CC2)CC3)cc1` [Compound 327, 5-[2-(4-cyclobutylpiperazin-1-yl)-2-oxoethyl]-2-(4-methoxyphenyl)-4,5,6,7-tetrahydro[1,3]thiazolo [5,4-c]pyridine], below 1000 nM.

As usually defined, the Ki is the equilibrium dissociation constant of an inhibitor or competing ligand from its target.

For the origin of these results see patent US20110082130A1 (LIGAND PHARMACEUTICALS, INC., priority 2006, published 2011).
